Data: patent US10221392B2, “Generation of pancreatic endoderm from pluripotent stem cells using small molecules” (Novo Nordisk A/S, priority 2012, dated 2019)

Assays:
Assay type in all cases: cell-based, human
[1] = tested on: NKX6.1/PDX1 double positive cells; experiment: NKX6.1/PDX1 library screen, early phase (compounds on top of bFGF based PE media, first seven days); conditions: concentration at which the fraction of NKX6.1/PDX1 double positive cells was enhanced more than 200% compared the PE media
Method: Human embryonic stem (hES) cells line SA121 and human induced pluripotent stem cells (hiPSC) chIPS4 (Cellectis) were grown in DEF-CS culture media (Cellectis) in T75 culture flasks.
After 24 hours the cells were washed with RPMI1640 and treated with 100 ng/ml Activin A (Peprotech #120-14E) in RPMI1640. […] Cells were maintained at 37° C. and 5% CO2 in a humidified incubator during the differentiation.
The DE cells were seeded at 200 000/cm^2 in 96 well optical plates (BD Bioscience), and PE differentiation using screening compounds was initiated the following day.
Cells were washed three times with PBS. […] Cells were washed five times and left in 200 μL PBS for imaging.
(§1) Imaging was performed using the InCell Analyzer 2000 (GE Healthcare). 4 fields per well with 10× objective were captured. The total cell number based in the DAPI counterstaining and the number of NKX6.1/PDX1 double positive cells was determined using InCell Developer Toolbox 1.8 (GE Healthcare). The fraction of NKX6.1/PDX1 double positive cells was normalized to the benchmark on each plate and the % effect was calculated. Values above 200% effect were categorized as hits.
The compounds within the bioactive library were tested at 1 uM and 0.1 uM. Compounds from the other libraries were tested at 10 uM and 1 uM. In a second candidate based screening approach, small molecules that target the main signalling pathways involved in pancreas development were included.
The library PE screening approach was divided into an early and a late phase (FIG. 1).
In the early phase, compounds were tested on top of the PE media for the first seven days of PE differentiation, and then the differentiation was continued for additional six days using PE media without compounds.
The screen was divided into an early and a late phase (FIG. 1). In the early phase, compounds were tested on top of the PE media for the first seven days of PE differentiation, and then continued for additional six days using PE media without compounds. In the late phase, DE cells were differentiated in the PE media for the first seven days. In the following six days compounds were tested on top of the PE media. Twelve positive control wells (PE media) and 12 negative control wells (PE media without bFGF) were included in each 96 well plate. Media change was performed daily.

[2] = tested on: NKX6.1/PDX1 double positive cells; experiment: Candidate based PE screen 2 (after 4 days hit compound of screen 1, compounds in basal medium for last 10 days); conditions: cells first exposed to hit compound from screen 1 for 4 days, compounds added for last 10 days; FIG. 5
Method: Pluripotent stem (PS) cells were differentiated into definitive endoderm according to DE protocol (See general methods) and seeded in 96 well plates for screening. The pancreatic endoderm screen was divided into two parts. In screen 1, compounds were added to a basal medium (RPMI1640+0.1% PEST+12% KOSR) the first eight days of PE differentiation. […] In screen 2, cells were first differentiated for 4 days with the hit compounds from screen 1, then screening compounds were added the last 10 days to basal medium.
Imaging was performed using the InCell Analyzer 2000 (GE Healthcare). […] The total cell number based in the DAPI counterstaining and the number of NKX6.1/PDX1 double positive cells was determined using InCell Developer Toolbox 1.8 (GE Healthcare). The fraction of NKX6.1/PDX1 double positive cells was normalized to the benchmark on each plate and the % effect was calculated. […]

[3] = tested on: NKX6.1/PDX1 double positive cells; experiment: Candidate based PE screen 1 (compounds in basal medium without bFGF, first eight days); conditions: compared to benchmark protocol (Ameri et al, 2010); hiPSC and hESC; FIG. 5
Method: Pluripotent stem (PS) cells were differentiated into definitive endoderm according to DE protocol (See general methods) and seeded in 96 well plates for screening. The pancreatic endoderm screen was divided into two parts. In screen 1, compounds were added to a basal medium (RPMI1640+0.1% PEST+12% KOSR) the first eight days of PE differentiation. Compounds were tested in 4 different time windows having 2 day increments and then cells were left to continue differentiation for another six days in the bFGF based published protocol (Ameri et al., 2010). In screen 2, cells were first differentiated for 4 days with the hit compounds from screen 1, then screening compounds were added the last 10 days to basal medium.
Human embryonic stem (hES) cells line SA121 and human induced pluripotent stem cells (hiPSC) chIPS4 (Cellectis) were grown in DEF-CS culture media (Cellectis) in T75 culture flasks. […]
as §1, with “4 fields per well with 10× objective were captured.” left out, “Values above 200% effect were categorized as hits.” left out

SMILES	hit concentration (Concentration) [1]	also measured
O=c1cc(-c2cccc3c2Sc2ccccc2S3)oc(N2CCOCC2)c1 [ATM Kinase Inhibitor]	10 µM	
NC(=O)c1ccc2[nH]c(-c3ccc(Oc4ccc(Cl)cc4)cc3)nc2c1 [Chk2 Inhibitor II]	10 µM	
CC1=C2C[C@H]3[C@@H](CC=C4C[C@@H](O)CC[C@@]43C)[C@@H]2CC[C@]12O[C@@H]1C[C@H](C)CN[C@H]1[C@H]2C [Cyclopamine]		hit identification, candidate screen 2 [2]: hit compounds
Cc1ccc2nc(NC(=O)CSc3nc4c(c(=O)n3-c3ccccc3)SCC4)sc2c1 [IWP2]		hit identification, candidate screen 2 [2]: hit compounds
c1ccc2c(-c3cnn4cc(-c5ccc(N6CCNCC6)cc5)cnc34)ccnc2c1 [LDN-193189]		hit identification and most effective time window, candidate screen 1 [3]: most effective when added for the first 4 days followed by 4 days basal medium
Fc1ccc(-c2nc3n(c2-c2ccncc2)CCS3)cc1 [SKF-86002]	10 µM	
COc1ccc(-c2cnc3c(-c4ccsc4)cnn3c2)cc1 [VEGF Receptor 2 Kinase Inhibitor IV]	10 µM	
